inhibition, GI50 and IC50 data for five compounds are collected here from ChEMBL document CHEMBL3124925, “Further constituents of Galianthe thalictroides (Rubiaceae) and inhibition of DNA topoisomerases I and IIα by its cytotoxic β-carboline alkaloids” (Bioorg Med Chem Lett, 2014).

The structures appear in SMILES notation. Converted amounts (≈) assume the structure as drawn. The source made the active and inactive calls. The calls are words filed in the database; no cut-off is given here.

The target of test [1] is T1, DNA topoisomerase 1 (Homo sapiens) (UniProt P11387).
T1 sequence (whole entry): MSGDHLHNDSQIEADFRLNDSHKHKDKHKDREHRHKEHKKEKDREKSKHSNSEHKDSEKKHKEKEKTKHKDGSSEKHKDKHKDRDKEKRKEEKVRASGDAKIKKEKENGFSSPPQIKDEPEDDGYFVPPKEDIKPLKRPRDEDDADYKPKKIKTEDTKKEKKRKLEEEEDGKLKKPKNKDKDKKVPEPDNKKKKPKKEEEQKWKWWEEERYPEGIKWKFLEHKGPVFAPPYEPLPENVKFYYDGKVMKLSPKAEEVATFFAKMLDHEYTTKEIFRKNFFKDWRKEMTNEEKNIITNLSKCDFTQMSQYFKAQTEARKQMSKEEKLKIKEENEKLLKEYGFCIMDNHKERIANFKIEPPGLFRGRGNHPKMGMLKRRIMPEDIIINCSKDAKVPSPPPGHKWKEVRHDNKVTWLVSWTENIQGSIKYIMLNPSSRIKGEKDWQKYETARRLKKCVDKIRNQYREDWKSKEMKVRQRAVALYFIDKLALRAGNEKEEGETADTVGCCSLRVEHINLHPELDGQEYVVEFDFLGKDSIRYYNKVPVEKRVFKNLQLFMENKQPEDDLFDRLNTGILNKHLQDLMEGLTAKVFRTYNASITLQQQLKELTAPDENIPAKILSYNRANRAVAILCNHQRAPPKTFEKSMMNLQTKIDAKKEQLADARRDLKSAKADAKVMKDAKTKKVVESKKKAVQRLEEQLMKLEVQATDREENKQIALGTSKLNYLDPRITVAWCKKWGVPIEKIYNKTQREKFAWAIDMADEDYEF
The test is described as follows: Inhibition of recombinant human DNA top1-mediated relaxation of pBR322 plasmid at 100 uM after 30 mins by agarose gel electrophoresis.

Test [2] has as its target DNA topoisomerase 2-alpha (Homo sapiens) (UniProt P11388). The test is described as follows: Inhibition of recombinant human top2 alpha-mediated kDNA decatenation compound added post enzyme-DNA incubation by agarose gel electrophoresis in presence of DTT.
Test [3] has the same target. The test can be described thus: Inhibition of recombinant human top2 alpha-mediated kDNA decatenation at 1 uM after 30 mins by agarose gel electrophoresis.
The target in test [4] is T1, DNA topoisomerase 1 (Homo sapiens). The test is described as follows: Inhibition of recombinant human DNA top1-mediated relaxation of pBR322 plasmid at 1 uM after 30 mins by agarose gel electrophoresis.
For another test, the system named is UACC-62. The test is described as follows: Cytotoxicity against human UACC62 cells assessed as growth inhibition by SRB assay. The test is classed as functional, cell-based.
Another test has as its system 786-0. The test can be described thus: Cytotoxicity against human 786-0 cells assessed as growth inhibition by SRB assay. The test is classed as functional, cell-based. (In general: In SRB staining, fixed cells bind dye roughly in proportion to their protein.)
In the next test the test system is MCF7. The test is described as follows: Cytotoxicity against human MCF7 cells assessed as growth inhibition by SRB assay. The test is classed as functional, cell-based.
A further test relates to B16-F10. The test is described as follows: Cytotoxicity against mouse B16F10 cells assessed as growth inhibition by SRB assay. The test is classed as functional.
In test [5] the target is DNA topoisomerase 2-alpha (Homo sapiens) (UniProt P11388). The test can be described thus: Inhibition of recombinant human top2 alpha-mediated kDNA decatenation compound added post enzyme-DNA incubation by agarose gel electrophoresis.
The target is the same in test [6]. The settings on record: 100 uM.
Description: Inhibition of recombinant human top2 alpha-mediated kDNA decatenation at 100 uM after 30 mins by agarose gel electrophoresis
The target in test [7] is T1, DNA topoisomerase 1 (Homo sapiens). The test can be described thus: Inhibition of recombinant human DNA top1-mediated relaxation of pBR322 plasmid at 25 uM after 30 mins by agarose gel electrophoresis.
The target in test [8] is DNA topoisomerase 2-alpha (Homo sapiens) (UniProt P11388). The test can be described thus: Inhibition of recombinant human top2 alpha-mediated kDNA decatenation at 25 uM after 30 mins by agarose gel electrophoresis.

Chain of DNA topoisomerase 2-alpha (Homo sapiens) (P11388 whole entry): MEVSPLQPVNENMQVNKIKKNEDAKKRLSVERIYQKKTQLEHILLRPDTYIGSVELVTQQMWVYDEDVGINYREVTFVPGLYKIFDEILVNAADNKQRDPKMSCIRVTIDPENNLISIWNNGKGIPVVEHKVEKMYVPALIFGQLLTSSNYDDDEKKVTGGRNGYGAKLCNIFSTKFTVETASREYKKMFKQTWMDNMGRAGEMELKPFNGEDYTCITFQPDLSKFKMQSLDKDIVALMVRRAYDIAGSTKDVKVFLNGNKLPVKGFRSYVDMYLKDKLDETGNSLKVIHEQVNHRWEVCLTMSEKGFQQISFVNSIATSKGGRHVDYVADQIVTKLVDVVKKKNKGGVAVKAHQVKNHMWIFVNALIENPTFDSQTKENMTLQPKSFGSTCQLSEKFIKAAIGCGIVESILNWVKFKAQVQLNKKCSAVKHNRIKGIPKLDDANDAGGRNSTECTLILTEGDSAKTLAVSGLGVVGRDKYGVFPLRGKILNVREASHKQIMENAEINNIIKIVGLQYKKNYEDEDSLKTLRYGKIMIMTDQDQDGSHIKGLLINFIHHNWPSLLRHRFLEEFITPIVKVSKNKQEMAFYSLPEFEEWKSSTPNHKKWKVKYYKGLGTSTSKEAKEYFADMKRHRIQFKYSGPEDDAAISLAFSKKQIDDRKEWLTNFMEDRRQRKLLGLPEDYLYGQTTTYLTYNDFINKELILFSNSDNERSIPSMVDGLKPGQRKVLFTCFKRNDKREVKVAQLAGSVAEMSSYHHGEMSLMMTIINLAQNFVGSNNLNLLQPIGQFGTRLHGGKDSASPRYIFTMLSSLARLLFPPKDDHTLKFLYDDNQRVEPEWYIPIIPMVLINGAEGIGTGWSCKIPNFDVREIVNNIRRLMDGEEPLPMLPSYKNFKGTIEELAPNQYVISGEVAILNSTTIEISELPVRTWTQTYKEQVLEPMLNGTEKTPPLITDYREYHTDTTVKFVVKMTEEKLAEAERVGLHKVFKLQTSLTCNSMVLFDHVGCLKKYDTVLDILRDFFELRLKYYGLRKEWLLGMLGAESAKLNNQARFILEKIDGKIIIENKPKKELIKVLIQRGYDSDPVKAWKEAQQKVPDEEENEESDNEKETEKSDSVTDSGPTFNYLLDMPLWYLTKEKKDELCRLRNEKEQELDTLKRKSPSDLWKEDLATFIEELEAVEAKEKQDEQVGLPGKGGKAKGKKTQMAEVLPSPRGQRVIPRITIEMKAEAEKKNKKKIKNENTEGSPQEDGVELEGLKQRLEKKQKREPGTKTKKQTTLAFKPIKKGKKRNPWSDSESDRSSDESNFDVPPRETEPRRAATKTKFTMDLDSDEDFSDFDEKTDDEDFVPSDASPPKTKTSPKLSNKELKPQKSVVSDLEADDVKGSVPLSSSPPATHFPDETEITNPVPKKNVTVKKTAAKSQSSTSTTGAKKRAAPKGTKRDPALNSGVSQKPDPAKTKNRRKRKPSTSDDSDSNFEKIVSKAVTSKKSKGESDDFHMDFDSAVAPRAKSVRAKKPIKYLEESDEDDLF

As to `CCc1c2c(nc3ccc(OC(=O)N4CCC(N5CCCCC5)CC4)cc13)-c1cc3c(c(=O)n1C2)COC(=O)[C@]3(O)CC`, in [1], the inhibition result is “Active”.

The GI50 is the concentration at which growth is held to half of that of the control. With `COc1cccc2[nH]c3c([C@H]4[C@H](C(C)(C)O)CC[C@]4(C)O)nccc3c12`, the inhibition entry in test [2], in test [3], in test [4] and in [5] was “Active” each time. Moreover, the GI50 turned out to be 2.5 µg/mL (≈ 7.05 µM) with UACC-62, 3 µg/mL (≈ 8.46 µM) in the test with 786-0, 3 µg/mL (≈ 8.46 µM) in the test on MCF7 and 19.5 µg/mL (≈ 55 µM) with B16-F10.

Turning to `COc1cc([C@@H]2c3cc4c(cc3[C@@H](O[C@@H]3O[C@@H]5CO[C@@H](C)O[C@H]5[C@H](O)[C@H]3O)[C@H]3COC(=O)[C@H]23)OCO4)cc(OC)c1O`, the inhibition entry in test [2], in [6] and in test [5] was “Active” throughout.

A word on the IC50: it is the concentration needed to halve the response being measured. Turning to `COc1cccc2[nH]c3c([C@H]4[C@H](C(C)(C)O)CC[C@@]4(O)CO)nccc3c12`, the inhibition entry in test [2], in [7], in test [8] and in [5] was “Active” each time. Besides, the IC50 in the test on UACC-62 amounted to 1.7 µg/mL (≈ 4.59 µM); with 786-0 it was 0.22 µg/mL (≈ 0.594 µM); with MCF7 it was 1.8 µg/mL (≈ 4.86 µM).

As to `COc1cccc2c1C(=O)c1c(O)c3c(c(O)c1C2=O)C[C@@](O)(C(=O)CO)C[C@@H]3O[C@H]1C[C@H](N)[C@H](O)[C@H](C)O1.Cl` [DOXORUBICIN HYDROCHLORIDE], the concentration for 50% growth inhibition (GI50) was determined as 0.25 µg/mL in the test on UACC-62, 0.43 µg/mL in the test on 786-0, 0.23 µg/mL with MCF7 and 0.22 µg/mL with B16-F10.
